Experimental data as given in ChEMBL document CHEMBL1833803, “Discovery of 1-amino-5H-pyrido[4,3-b]indol-4-carboxamide inhibitors of Janus kinase 2 (JAK2) for the treatment of myeloproliferative disorders” (J Med Chem, 2011).
≈ marks a conversion by molar mass, not a printed value. Each block holds one compound with its values, some of them ahead of it.

Key:
[1] = Oral bioavailability in rat at 2 mg/kg; format: ADME, organism-based; details: in vivo
[2] = Selectivity ratio of IC50 for JAK3 to IC50 for JAK2
[3] = biological target: T1, Tyrosine-protein kinase JAK2 (Homo sapiens, UniProt O60674); experiment: Inhibition of JAK2
T1 sequence (O60674 whole entry): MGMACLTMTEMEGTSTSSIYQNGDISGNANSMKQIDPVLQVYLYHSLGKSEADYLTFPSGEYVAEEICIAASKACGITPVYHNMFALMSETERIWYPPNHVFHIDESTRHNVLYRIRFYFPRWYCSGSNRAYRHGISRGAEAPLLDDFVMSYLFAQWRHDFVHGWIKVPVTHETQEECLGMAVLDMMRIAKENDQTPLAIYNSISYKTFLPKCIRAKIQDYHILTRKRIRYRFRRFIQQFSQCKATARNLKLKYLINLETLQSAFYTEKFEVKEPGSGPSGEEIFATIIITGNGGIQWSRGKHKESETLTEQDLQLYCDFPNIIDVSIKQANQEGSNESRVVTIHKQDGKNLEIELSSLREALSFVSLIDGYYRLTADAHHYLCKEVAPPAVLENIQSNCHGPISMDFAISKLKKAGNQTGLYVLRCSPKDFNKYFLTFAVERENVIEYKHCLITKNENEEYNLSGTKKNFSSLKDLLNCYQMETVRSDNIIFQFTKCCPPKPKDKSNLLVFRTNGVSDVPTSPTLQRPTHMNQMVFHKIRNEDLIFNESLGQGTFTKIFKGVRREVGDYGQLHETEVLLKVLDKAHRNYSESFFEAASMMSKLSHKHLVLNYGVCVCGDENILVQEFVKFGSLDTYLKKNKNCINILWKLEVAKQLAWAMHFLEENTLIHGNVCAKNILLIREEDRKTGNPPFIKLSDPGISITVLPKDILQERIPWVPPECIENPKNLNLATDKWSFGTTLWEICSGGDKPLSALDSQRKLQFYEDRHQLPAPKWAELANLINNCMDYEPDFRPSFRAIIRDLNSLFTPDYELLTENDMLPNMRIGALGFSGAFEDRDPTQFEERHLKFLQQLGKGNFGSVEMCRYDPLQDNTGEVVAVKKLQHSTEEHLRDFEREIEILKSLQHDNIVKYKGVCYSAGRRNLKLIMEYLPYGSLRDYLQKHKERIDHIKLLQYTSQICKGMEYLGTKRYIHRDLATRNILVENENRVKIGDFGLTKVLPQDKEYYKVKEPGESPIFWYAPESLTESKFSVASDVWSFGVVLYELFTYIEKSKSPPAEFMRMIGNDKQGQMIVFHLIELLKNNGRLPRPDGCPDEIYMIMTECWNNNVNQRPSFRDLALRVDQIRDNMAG

[4] = Lipophilicity, log D of the compound at pH 7.4; format: physicochemical; details: buffer
[5] = biological target: T1, Tyrosine-protein kinase JAK2; experiment: Inhibition of JAK2 using biotin-EQEDEPEGDYFEWLE- NH2 as substrate
[6] = Aqueous solubility of the compound; format: physicochemical; details: buffer
[7] = biological target: T1, Tyrosine-protein kinase JAK2; experiment: Competitive inhibition of JAK2 in the presence of 2 mM ATP
[8] = biological target: T2, Tyrosine-protein kinase JAK3 (Homo sapiens, UniProt P52333); experiment: Inhibition of JAK3
T2 sequence (P52333 whole entry): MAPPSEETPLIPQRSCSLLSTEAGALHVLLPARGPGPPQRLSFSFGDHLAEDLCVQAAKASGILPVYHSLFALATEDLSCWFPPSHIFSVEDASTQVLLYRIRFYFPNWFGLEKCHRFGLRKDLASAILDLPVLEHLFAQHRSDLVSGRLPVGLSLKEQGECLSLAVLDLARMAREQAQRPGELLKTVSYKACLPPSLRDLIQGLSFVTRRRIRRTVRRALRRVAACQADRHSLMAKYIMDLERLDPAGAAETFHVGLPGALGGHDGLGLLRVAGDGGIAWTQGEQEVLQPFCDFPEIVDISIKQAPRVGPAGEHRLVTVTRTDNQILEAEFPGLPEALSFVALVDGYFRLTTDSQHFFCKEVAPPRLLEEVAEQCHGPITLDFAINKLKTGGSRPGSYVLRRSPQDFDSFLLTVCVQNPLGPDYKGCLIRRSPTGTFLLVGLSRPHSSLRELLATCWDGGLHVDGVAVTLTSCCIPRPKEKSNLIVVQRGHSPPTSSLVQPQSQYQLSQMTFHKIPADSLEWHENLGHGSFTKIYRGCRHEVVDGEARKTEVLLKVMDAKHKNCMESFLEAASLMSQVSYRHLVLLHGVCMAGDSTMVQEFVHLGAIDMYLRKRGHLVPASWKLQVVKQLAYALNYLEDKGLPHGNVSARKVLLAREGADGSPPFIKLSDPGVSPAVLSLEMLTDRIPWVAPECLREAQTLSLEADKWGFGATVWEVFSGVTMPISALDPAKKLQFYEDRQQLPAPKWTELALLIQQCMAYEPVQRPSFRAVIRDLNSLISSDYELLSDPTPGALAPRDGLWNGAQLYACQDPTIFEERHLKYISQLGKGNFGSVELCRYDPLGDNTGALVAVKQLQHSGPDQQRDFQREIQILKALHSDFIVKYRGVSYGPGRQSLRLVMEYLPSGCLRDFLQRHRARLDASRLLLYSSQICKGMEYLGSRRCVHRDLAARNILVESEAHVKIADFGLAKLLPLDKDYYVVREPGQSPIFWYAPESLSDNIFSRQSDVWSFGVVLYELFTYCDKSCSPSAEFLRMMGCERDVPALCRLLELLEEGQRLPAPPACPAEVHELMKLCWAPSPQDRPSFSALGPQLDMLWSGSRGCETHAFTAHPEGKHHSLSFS

[9] = biological target: T1, Tyrosine-protein kinase JAK2; experiment: Competitive inhibition of JAK2 in the presence of 15 uM ATP
Rhesus monkey [10] = experiment: Dose normalized AUC in monkey at 1 mg/kg, po; format: ADME, organism-based, Macaca mulatta; set-up: dose 1 mg/kg, route oral; details: in vivo
[11] = Oral bioavailability in monkey at 1 mg/kg; format: ADME, organism-based, Macaca mulatta; details: rhesus monkey, in vivo
[12] = Half life in dog at 0.5 mg/kg, iv; format: ADME, organism-based, Canis lupus familiaris; set-up: dose 0.5 mg/kg, route intravenous; details: in vivo
Mus musculus [13] = experiment: Reduction in pSTAT5 concentration in po dosed darbepoetin-stimulated C57B1/6 mouse
[14] = Oral bioavailability in dog at 1 mg/kg; format: ADME, organism-based, Canis lupus familiaris; details: in vivo
[15] = Half life in monkey at 0.5 mg/kg, iv; format: ADME, organism-based, Macaca mulatta; set-up: dose 0.5 mg/kg, route intravenous; details: rhesus monkey, in vivo
[16] = Half life in rat at 1 mg/kg, iv; format: ADME, organism-based; set-up: dose 1 mg/kg, route intravenous; details: in vivo
[17] = biological target: T3, Tyrosine-protein kinase JAK2 (Homo sapiens, UniProt O60674, V617F); experiment: Inhibition of JAK2 V617F mutant-mediated STAT5 phosphorylation in mouse BAF3 cells; format: cell-based
T3 sequence (O60674 whole entry V617F): as the sequence (O60674 whole entry) above, with V617F counted along it

[18] = biological target: Voltage-dependent L-type calcium channel subunit alpha-1C (Rattus norvegicus, UniProt P22002); experiment: Inhibition of rat CaV1.2
[19] = biological target: Sodium channel protein type 5 subunit alpha (Homo sapiens, UniProt Q14524); experiment: Inhibition of NaV1.5
Canis familiaris [20] = experiment: Dose normalized AUC in dog at 0.5 mg/kg, iv; format: ADME, organism-based, Canis lupus familiaris; set-up: dose 0.5 mg/kg, route intravenous; details: in vivo
[21] = biological target: Potassium voltage-gated channel subfamily E member 1 (Homo sapiens, UniProt P15382); experiment: Inhibition of Iks channel
Rattus norvegicus [22] = experiment: Dose normalized AUC in rat at 2 mg/kg, po; format: ADME, organism-based; set-up: dose 2 mg/kg, route oral; details: in vivo
[23] = Clearance in rat at 1 mg/kg, iv; format: ADME, organism-based; set-up: dose 1 mg/kg, route intravenous; details: in vivo
CYP2C9 = CYP2C9 (Homo sapiens, UniProt P11712); experiment: Inhibition of CYP2C9 at 10 uM; format: ADME
CYP2C9, sequence (P11712 whole entry): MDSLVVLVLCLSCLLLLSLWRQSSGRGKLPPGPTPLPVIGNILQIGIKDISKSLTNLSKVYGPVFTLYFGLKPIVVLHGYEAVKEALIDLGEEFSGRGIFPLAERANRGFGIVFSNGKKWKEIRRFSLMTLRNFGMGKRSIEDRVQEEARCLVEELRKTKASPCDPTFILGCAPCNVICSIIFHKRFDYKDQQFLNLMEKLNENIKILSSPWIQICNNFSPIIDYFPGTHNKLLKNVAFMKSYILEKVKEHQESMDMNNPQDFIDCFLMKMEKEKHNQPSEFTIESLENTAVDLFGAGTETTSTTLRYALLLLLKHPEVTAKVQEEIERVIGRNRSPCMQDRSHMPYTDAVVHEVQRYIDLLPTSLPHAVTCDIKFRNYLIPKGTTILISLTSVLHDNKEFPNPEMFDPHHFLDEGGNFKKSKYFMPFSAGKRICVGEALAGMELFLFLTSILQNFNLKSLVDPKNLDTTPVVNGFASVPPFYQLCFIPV

[24] = Cmax in dog at 1 mg/kg, po; format: ADME, organism-based, Canis lupus familiaris; set-up: dose 1 mg/kg, route oral; details: in vivo
[25] = Tmax in dog at 1 mg/kg, po; format: ADME, organism-based, Canis lupus familiaris; set-up: dose 1 mg/kg, route oral; details: in vivo
Cytochrome P450 2D6 = Cytochrome P450 2D6 (Homo sapiens, UniProt P10635); experiment: Inhibition of CYP2D6; format: ADME
Cytochrome P450 2D6, sequence (P10635 whole entry): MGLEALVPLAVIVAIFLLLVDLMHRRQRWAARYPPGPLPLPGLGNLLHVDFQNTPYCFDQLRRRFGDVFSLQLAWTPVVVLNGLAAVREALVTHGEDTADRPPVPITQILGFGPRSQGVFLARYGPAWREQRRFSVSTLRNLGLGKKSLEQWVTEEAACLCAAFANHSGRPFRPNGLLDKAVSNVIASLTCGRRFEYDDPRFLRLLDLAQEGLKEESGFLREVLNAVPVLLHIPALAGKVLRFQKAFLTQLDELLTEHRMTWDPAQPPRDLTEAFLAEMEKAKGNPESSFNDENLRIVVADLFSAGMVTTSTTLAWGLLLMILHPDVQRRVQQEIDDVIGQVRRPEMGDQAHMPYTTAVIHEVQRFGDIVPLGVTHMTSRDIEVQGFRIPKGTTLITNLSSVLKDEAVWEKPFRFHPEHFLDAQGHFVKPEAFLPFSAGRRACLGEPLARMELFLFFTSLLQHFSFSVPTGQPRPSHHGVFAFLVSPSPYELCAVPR

Rattus norvegicus [26] = experiment: Dose normalized AUC in rat at 1 mg/kg, iv; format: ADME, organism-based; set-up: dose 1 mg/kg, route intravenous; details: in vivo
[27] = Cmax in monkey at 1 mg/kg, po; format: ADME, organism-based, Macaca mulatta; set-up: dose 1 mg/kg, route oral; details: rhesus monkey, in vivo
Cytochrome P450 3A4 = Cytochrome P450 3A4 (Homo sapiens, UniProt P08684); experiment: Inhibition of CYP3A4; format: ADME
Cytochrome P450 2C9 = Cytochrome P450 2C9 (Homo sapiens, UniProt P11712); experiment: Inhibition of CYP2C9; format: ADME
Cytochrome P450 2C9, sequence (P11712 whole entry): as the sequence (P11712 whole entry) above

[28] = Plasma clearance in rat at 1 mg/kg, iv; format: ADME, organism-based; set-up: dose 1 mg/kg, route intravenous
[29] = Volume of distribution at steady state in monkey at 0.5 mg/kg, iv; format: ADME, organism-based, Macaca mulatta; set-up: dose 0.5 mg/kg, route intravenous; details: rhesus monkey, in vivo, read-out: Vdss
[30] = biological target: T3, Tyrosine-protein kinase JAK2; experiment: Inhibition of JAK2 V617F mutant
CYP3A4 = CYP3A4 (Homo sapiens, UniProt P08684); experiment: Inhibition of CYP3A4 at 10 uM; format: ADME
Mus musculus [31] = species: Mus musculus; experiment: Prevention of darbepoetin-induced increase in spleen weight in C57/BL6 mouse PV model; format: functional, organism-based; details: C57Bl/6
[32] = Cmax in rat at 2 mg/kg, po; format: ADME, organism-based; set-up: dose 2 mg/kg, route oral; details: in vivo
[33] = Volume of distribution at steady state in rat at 1 mg/kg, iv; format: ADME, organism-based; set-up: dose 1 mg/kg, route intravenous; details: in vivo, read-out: Vdss
Mus musculus [34] = species: Mus musculus; experiment: Prevention of darbepoetin-induced elevation of hematocrit in C57/BL6 mouse PV model; format: functional, organism-based; details: C57Bl/6
Canis familiaris [35] = experiment: Dose normalized AUC in dog at 1 mg/kg, po; format: ADME, organism-based, Canis lupus familiaris; set-up: dose 1 mg/kg, route oral; details: in vivo
[36] = Plasma clearance in dog at 0.5 mg/kg, iv; format: ADME, organism-based, Canis lupus familiaris; set-up: dose 0.5 mg/kg, route intravenous
Rhesus monkey [37] = experiment: Dose normalized AUC in monkey at 0.5 mg/kg, iv; format: ADME, organism-based, Macaca mulatta; set-up: dose 0.5 mg/kg, route intravenous; details: in vivo
[38] = Volume of distribution at steady state in dog at 0.5 mg/kg, iv; format: ADME, organism-based, Canis lupus familiaris; set-up: dose 0.5 mg/kg, route intravenous; details: in vivo, read-out: Vdss
[39] = biological target: T1, Tyrosine-protein kinase JAK2; experiment: Inhibition of JAK2-mediated STAT5 phosphorylation in human HEL 92.1.7 irf1-bla cells; format: cell-based
[40] = Tmax in rat at 2 mg/kg, po; format: ADME, organism-based; set-up: dose 2 mg/kg, route oral; details: in vivo
[41] = Plasma clearance in monkey at 0.5 mg/kg, iv; format: ADME, organism-based, Macaca mulatta; set-up: dose 0.5 mg/kg, route intravenous; details: rhesus monkey
[42] = Tmax in monkey at 1 mg/kg, po; format: ADME, organism-based, Macaca mulatta; set-up: dose 1 mg/kg, route oral; details: rhesus monkey, in vivo
[43] = Oral bioavailability in rat at 4 mg/kg; format: ADME, organism-based; details: in vivo
[44] = biological target: Tyrosine-protein kinase JAK1 (Homo sapiens, UniProt P23458); experiment: Inhibition of JAK1
Tyrosine-protein kinase JAK1, sequence (P23458 whole entry): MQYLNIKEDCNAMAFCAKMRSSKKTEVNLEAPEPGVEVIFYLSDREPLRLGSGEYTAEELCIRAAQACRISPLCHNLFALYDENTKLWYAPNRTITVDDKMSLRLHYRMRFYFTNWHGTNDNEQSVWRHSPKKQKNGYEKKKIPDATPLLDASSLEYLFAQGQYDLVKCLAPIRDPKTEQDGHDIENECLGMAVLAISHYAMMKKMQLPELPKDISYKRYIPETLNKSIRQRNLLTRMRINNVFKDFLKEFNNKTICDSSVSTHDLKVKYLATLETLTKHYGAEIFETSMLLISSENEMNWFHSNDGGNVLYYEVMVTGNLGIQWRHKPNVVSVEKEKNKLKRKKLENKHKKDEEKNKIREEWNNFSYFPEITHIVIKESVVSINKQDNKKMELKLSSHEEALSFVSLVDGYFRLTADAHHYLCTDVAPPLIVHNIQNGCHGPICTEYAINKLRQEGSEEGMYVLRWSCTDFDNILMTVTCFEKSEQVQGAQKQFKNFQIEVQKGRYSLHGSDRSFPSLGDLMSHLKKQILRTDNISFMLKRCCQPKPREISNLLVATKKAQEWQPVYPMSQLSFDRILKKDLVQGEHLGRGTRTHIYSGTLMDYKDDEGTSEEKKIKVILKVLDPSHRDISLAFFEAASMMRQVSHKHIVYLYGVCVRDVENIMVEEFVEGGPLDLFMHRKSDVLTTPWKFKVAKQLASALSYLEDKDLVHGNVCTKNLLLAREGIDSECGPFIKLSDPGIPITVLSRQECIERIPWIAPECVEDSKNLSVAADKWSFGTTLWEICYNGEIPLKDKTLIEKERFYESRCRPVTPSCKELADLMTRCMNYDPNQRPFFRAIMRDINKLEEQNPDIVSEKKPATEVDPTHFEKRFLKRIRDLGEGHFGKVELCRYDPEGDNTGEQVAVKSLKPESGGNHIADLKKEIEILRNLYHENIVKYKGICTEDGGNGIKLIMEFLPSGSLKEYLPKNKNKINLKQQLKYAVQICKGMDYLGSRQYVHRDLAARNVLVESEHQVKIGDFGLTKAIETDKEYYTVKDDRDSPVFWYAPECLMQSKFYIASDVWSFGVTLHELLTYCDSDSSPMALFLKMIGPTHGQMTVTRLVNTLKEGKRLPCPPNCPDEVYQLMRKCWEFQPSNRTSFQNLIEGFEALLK

[45] = biological target: Non-receptor tyrosine-protein kinase TYK2 (Homo sapiens, UniProt P29597); experiment: Inhibition of TYK2
Non-receptor tyrosine-protein kinase TYK2, sequence (P29597 whole entry): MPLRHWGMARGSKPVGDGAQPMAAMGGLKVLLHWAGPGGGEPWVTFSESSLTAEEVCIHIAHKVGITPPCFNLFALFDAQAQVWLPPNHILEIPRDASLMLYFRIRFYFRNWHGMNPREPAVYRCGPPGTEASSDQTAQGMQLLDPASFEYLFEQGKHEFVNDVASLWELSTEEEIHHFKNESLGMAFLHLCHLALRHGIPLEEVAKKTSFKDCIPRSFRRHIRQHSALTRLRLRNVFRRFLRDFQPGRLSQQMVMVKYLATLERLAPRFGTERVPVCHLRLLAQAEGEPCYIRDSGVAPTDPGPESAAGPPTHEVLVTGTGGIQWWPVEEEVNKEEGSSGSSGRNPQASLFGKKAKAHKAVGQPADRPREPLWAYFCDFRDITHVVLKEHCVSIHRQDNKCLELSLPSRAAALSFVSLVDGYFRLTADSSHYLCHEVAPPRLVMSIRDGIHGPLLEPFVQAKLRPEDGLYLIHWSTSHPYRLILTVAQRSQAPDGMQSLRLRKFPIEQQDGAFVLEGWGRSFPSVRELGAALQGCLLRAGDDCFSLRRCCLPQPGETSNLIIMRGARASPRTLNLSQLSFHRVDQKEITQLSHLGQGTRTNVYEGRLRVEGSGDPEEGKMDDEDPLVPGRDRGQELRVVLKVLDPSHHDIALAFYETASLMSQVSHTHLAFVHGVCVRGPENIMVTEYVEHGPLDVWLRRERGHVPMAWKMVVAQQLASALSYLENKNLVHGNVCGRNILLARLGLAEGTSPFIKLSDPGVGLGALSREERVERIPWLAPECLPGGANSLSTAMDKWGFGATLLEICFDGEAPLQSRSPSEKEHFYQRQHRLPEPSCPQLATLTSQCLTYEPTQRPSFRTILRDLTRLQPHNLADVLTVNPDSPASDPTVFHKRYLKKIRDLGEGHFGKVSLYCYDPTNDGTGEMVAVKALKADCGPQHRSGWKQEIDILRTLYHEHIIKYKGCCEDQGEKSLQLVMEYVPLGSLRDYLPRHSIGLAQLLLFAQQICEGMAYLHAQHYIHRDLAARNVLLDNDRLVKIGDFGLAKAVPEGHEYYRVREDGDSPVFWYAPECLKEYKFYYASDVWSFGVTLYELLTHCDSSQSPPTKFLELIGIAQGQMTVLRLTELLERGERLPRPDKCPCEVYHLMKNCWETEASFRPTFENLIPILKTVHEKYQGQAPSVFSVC

[46] = Plasma clearance in rat at 2 mg/kg, iv and 4 mg/kg, po; format: ADME, organism-based
[47] = Plasma clearance in rat at 1 mg/kg, iv and 2 mg/kg, po; format: ADME, organism-based

bioavailability [1]: 87%
Ratio IC50 [2]: 30
IC50 [3]: 230 nM
logD [4]: 2
IC50 [5]: 230 nM
solubility [6]: 6 µM (≈ 1.63 µg/mL)
IC50 [7]: > 15000 nM
IC50 [8]: 6800 nM
IC50 [9]: 230 nM
Structure (SMILES): CCNc1ncc(C(N)=O)c2[nH]c3ccc(F)cc3c12

AUC/dose (Rhesus monkey [10]): 3.4 µM·h/mg/kg
bioavailability [11]: 66%
half-life [12]: 5.2 h
IC50 (Mus musculus [13]): 1200 nM
bioavailability [14]: 120%
half-life [15]: 7.3 h
half-life [16]: 4.5 h
IC50 [17]: 11 nM
AUC/dose (Canis familiaris [20]): 2.4 µM·h/mg/kg
IC50 [21]: > 10000 nM
bioavailability [1]: 67%
AUC/dose (Rattus norvegicus [22]): 3.4 µM·h/mg/kg
clearance [23]: 7 mL/min/kg
inhibition at 10 µM (CYP2C9): 34%
Cmax [24]: 300 nM
Tmax [25]: 5.1 h
IC50 (Cytochrome P450 2D6): > 75000 nM
AUC/dose (Rattus norvegicus [26]): 5.3 µM·h/mg/kg
Cmax [27]: 200 nM
IC50 (Cytochrome P450 3A4): > 75000 nM
IC50 (Cytochrome P450 2C9): > 75000 nM
IC50 [5]: 0.8 nM
clearance [28]: 7.4 mL/min/kg
Vd [29]: 4.7 L/kg
IC50 [30]: 0.4 nM
inhibition at 10 µM (CYP3A4): 30%
Cmax [32]: 600 nM
Vd [33]: 2.5 L/kg
AUC/dose (Canis familiaris [35]): 2.5 µM·h/mg/kg
clearance [36]: 18 mL/min/kg
AUC/dose (Rhesus monkey [37]): 5.2 µM·h/mg/kg
Vd [38]: 6.1 L/kg
IC50 [39]: 25 nM
Tmax [40]: 6 h
clearance [41]: 7.4 mL/min/kg
Tmax [42]: 6 h
Structure (SMILES): NC(=O)c1cnc(N[C@H](C2CC2)C(F)(F)F)c2c1[nH]c1cc(-c3cnc(N)nc3)ccc12
IC50 [18]: > 30000 nM
IC50 [19]: > 30000 nM
Activity (Mus musculus [31]): Dose-dependent effect
Activity (Mus musculus [34]): Dose-dependent effect

bioavailability [43]: 100%
IC50 [44]: 2 nM
IC50 [45]: 7 nM
Ratio IC50 [2]: 26
IC50 [3]: 3 nM
logD [4]: 3.6
solubility [6]: < 2 µM
clearance [46]: 5.4 mL/min/kg
IC50 [8]: 77 nM
Structure (SMILES): O=c1[nH]ccc2c3[nH]c(-c4ccccc4Cl)nc3c3ccc(F)cc3c12

bioavailability [1]: 89%
Ratio IC50 [2]: 0.7
IC50 [3]: 1100 nM
logD [4]: 4.3
clearance [47]: 13 mL/min/kg
IC50 [8]: 720 nM
Structure (SMILES): O=c1[nH]ccc2c1c1cc(F)ccc1n2-c1ccccc1
